The source of these data is patent US20100168103A1, “DIARYL PIPERIDINE COMPOUNDS AS CALCIUM CHANNEL BLOCKERS” (NEUROMED PHARMACEUTICALS LTD., priority 2006, published 2010).

Structures are written as SMILES. pIC50: −log10 of the molar value. Read-outs that look alike come from different tables or passages of the source.

In this experiment the target is T1, rat brain N-type calcium channel subunits (α1B+α2δ+β1b cDNA subunits) (Rattus norvegicus, UniProt Q02294).
T1 construct: expressed in transfected cells; host or cells: HEK 293
T1 sequence (Q02294 whole entry): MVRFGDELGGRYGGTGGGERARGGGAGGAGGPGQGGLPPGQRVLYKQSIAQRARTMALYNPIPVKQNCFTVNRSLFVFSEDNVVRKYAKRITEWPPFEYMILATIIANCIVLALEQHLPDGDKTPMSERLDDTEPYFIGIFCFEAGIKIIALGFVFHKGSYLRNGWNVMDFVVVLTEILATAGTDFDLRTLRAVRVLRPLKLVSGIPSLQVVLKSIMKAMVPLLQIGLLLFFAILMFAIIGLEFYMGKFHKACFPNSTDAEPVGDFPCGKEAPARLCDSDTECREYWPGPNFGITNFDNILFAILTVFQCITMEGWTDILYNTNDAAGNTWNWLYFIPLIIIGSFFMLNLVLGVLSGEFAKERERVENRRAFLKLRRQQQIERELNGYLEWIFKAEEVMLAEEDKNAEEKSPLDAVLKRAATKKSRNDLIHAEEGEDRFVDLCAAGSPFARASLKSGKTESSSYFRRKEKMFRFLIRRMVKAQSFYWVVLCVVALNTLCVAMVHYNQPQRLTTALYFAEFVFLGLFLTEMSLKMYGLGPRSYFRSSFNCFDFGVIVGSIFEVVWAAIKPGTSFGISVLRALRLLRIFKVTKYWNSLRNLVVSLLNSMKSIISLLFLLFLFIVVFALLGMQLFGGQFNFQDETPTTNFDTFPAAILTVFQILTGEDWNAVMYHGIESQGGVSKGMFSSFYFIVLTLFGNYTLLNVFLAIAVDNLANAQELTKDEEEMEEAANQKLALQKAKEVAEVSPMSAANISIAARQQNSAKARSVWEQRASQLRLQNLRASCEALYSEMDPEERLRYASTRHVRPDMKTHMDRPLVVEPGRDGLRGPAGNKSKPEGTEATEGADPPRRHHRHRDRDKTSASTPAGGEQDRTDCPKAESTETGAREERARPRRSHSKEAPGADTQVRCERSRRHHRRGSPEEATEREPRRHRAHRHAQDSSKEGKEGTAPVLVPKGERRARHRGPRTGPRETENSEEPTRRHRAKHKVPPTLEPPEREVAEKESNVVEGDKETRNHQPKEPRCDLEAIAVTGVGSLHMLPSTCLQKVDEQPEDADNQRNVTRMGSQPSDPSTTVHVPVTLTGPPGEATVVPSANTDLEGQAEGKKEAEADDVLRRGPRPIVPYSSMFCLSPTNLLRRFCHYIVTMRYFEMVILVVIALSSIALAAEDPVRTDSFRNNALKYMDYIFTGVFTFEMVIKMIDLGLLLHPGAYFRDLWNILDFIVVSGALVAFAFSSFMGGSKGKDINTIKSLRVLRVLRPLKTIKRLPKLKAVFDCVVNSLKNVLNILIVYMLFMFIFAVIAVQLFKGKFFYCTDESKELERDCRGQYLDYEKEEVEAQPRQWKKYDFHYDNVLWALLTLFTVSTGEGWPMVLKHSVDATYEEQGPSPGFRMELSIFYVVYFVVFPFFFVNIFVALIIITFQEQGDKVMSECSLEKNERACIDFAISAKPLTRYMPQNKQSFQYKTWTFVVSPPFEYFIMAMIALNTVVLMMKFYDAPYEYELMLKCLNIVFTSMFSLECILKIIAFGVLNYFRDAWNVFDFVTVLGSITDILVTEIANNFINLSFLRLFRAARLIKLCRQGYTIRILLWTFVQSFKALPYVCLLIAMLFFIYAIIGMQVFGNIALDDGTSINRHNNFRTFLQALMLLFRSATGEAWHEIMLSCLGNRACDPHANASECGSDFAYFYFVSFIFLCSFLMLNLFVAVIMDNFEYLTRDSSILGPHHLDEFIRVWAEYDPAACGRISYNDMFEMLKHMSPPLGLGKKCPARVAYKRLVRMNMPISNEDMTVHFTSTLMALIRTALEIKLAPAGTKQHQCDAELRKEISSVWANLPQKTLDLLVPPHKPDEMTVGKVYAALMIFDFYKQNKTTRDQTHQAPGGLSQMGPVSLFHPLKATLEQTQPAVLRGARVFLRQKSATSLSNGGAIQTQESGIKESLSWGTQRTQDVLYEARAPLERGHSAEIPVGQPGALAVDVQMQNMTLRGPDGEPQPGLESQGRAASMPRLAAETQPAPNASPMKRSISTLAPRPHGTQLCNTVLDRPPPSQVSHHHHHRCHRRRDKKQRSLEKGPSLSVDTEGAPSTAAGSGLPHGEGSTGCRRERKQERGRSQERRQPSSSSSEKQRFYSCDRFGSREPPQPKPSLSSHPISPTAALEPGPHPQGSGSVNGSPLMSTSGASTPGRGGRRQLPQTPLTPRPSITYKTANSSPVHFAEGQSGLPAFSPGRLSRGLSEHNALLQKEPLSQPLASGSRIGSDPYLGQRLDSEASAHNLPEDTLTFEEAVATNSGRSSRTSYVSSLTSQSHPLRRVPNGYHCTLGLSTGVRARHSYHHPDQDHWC
T1 sequence (P54290 25-944 partner limits assumed): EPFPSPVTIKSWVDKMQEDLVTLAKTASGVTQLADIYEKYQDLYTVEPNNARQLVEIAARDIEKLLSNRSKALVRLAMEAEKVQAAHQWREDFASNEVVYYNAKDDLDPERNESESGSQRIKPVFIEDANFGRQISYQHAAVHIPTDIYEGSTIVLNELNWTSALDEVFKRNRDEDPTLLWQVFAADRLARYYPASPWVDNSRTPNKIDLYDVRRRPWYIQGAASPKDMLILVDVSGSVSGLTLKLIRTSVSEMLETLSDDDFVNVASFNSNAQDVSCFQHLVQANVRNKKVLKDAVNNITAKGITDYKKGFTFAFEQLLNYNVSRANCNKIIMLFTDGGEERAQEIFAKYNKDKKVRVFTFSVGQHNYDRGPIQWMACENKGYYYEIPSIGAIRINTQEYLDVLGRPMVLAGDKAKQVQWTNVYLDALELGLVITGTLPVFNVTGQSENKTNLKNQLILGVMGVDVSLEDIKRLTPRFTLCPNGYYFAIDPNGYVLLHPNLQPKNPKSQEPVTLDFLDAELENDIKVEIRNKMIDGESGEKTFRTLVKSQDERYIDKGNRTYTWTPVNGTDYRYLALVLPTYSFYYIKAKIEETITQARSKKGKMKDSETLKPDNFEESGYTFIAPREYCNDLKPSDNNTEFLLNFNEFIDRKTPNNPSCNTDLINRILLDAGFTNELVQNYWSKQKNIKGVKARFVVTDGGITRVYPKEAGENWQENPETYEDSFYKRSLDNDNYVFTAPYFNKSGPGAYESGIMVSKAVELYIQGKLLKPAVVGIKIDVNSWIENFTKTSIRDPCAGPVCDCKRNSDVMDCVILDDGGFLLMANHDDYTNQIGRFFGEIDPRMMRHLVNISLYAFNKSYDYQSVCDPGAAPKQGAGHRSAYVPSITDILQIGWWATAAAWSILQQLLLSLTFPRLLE
T1 sequence (P54290 945-1091 partner limits assumed): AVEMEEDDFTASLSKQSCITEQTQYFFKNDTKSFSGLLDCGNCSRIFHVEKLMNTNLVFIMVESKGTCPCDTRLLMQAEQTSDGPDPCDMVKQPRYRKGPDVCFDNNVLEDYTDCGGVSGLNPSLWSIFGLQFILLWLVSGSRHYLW
T1 sequence (P54283 whole entry partner): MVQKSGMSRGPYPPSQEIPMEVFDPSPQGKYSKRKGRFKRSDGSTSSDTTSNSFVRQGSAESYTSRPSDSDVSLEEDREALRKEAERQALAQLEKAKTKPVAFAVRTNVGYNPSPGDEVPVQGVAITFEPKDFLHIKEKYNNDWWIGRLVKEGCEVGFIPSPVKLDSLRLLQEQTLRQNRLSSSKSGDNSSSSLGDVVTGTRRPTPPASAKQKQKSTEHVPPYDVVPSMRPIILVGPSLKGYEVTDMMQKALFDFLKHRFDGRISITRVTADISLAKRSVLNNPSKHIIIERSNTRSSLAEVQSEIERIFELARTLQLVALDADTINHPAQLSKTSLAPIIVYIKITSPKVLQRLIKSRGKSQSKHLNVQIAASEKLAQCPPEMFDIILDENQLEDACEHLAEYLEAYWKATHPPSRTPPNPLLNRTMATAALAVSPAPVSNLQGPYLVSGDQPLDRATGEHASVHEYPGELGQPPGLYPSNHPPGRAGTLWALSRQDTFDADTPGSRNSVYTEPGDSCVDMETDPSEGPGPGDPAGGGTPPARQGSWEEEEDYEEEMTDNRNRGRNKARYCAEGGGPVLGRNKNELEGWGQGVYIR
As to the kind of experiment: N-type calcium channel block, whole cell patch clamp in transfected HEK 293 cells. Type of experiment: cell-based. As to conditions: holding potential −80 mV to +10 mV. As to the method:
N-type calcium channel blocking activity was assayed in human embryonic kidney cells, HEK 293, stably transfected with the rat brain N-type calcium channel subunits (α1B+α2δ+β1b cDNA subunits). Alternatively, N-type calcium channels (α1B+α2δ+β1b cDNA subunits), L-type channels (α1C+α2δ+β1b cDNA subunits) and P/Q-type channels (α1A+α2δ+β1b cDNA subunits) were transiently expressed in HEK 293 cells. Briefly, cells were cultured in Dulbecco's modified eagle medium (DMEM) supplemented with 10% fetal bovine serum, 200 U/ml penicillin and 0.2 mg/ml streptomycin at 37° C. with 5% CO2. At 85% confluency cells were split with 0.25% trypsin/1 mM EDTA and plated at 10% confluency on glass coverslips. At 12 hours the medium was replaced and the cells transiently transfected using a standard calcium phosphate protocol and the appropriate calcium channel cDNA's. Fresh DMEM was supplied and the cells transferred to 28° C./5% CO2. Cells were incubated for 1 to 2 days prior to whole cell recording.
Whole cell patch clamp experiments were performed using an Axopatch 200B amplifier (Axon Instruments, Burlingame, Calif.) linked to a personal computer equipped with pCLAMP software. The external and internal recording solutions contained, respectively, 5 mM BaCl2, 10 mM MgCl2, 10 mM HEPES, 40 mM TEACl, 10 mM glucose, 87.5 mM CsCl (pH 7.2) and 108 mM CsMS, 4 mM MgCl2, 9 mM EGTA, 9 mM HEPES (pH 7.2). Currents were typically elicited from a holding potential of −80 mV to +10 mV using Clampex software (Axon Instruments). Typically, currents were first elicited with low frequency stimulation (0.067 Hz) and allowed to stabilize prior to application of the compounds. The compounds were then applied during the low frequency pulse trains for two to three minutes to assess tonic block, and subsequently the pulse frequency was increased to 0.2 Hz to assess frequency dependent block. Data were analyzed using Clampfit (Axon Instruments) and SigmaPlot 4.0 (Jandel Scientific).
On the technique in general: The patch-clamp technique gives a direct electrical read-out from membranes.

Where [1] appears, read: low frequency stimulation 0.067 Hz (tonic block), 5 mM BaCl2, read-out: IC50 @ 0.067 Hz.
Where [2] appears, read: pulse frequency 0.2 Hz (frequency dependent block), 5 mM BaCl2, read-out: IC50 @ 0.2 Hz.

The pIC50 is the negative decadic logarithm of the IC50, by convention in mol/L. `O=C(NC(c1cccc(F)c1)c1cccc(F)c1)N1CCC(CN2CCCCC2)CC1` [Compound 60]: the pIC50 under setting [1] was 5.25.

`Cc1ccccc1C(CC(=O)N1CCC(C(=O)N2CC(C)NC(C)C2)(c2ccccc2)CC1)c1ccccc1C` (stereo not drawn) [Compound 27, 1-(4-(3,5-dimethylpiperazine-1-carbonyl)-4-phenylpiperidin-1-yl)-3,3-di-o-tolylpropan-1-one]: the pIC50 runs as follows: under setting [1], 6.39; under setting [2], 6.62.

For the molecule `Cc1ccccc1C(CC(=O)N1CCC(C(=O)N2CCN(C)CC2)(c2ccccc2)CC1)c1ccccc1C` [Compound 37, 1-(4-(4-methylpiperazine-1-carbonyl)-4-phenylpiperidin-1-yl)-3,3-di-o-tolylpropan-1-one], the pIC50 reads like this: under setting [1], 6.42; under setting [2], 6.54.

Take `CC(C)(C)N1CCN(C(=O)C2CCN(C(=O)NC(c3ccccc3)c3ccccc3)CC2)CC1` [Compound 80, N-benzhydryl-4-(4-tert-butylpiperazin-1-carbonyl)piperidine-1-carboxamide]: the pIC50 under setting [1] is 4.93.

As to `O=C(COC(c1ccccc1)c1ccccc1)N1CCC(C(c2ccccc2)N2CCCCC2)CC1` (stereo not drawn) [Compound 52], the pIC50 under setting [1] was 6.20 and the pIC50 under setting [2] was 6.35.

For the molecule `CN1CCN(C(=O)C2CCN(C(=O)CC(c3ccccc3)c3ccccc3)CC2)CC1` [Compound 12, 1-(4-(4-methylpiperazine-1-carbonyl)piperidin-1-yl)-3,3-diphenylpropan-1-one], the pIC50 was 5.90 under setting [1] and 6.12 under setting [2].

Turning to `Cc1ccccc1C(CC(=O)N1CCC(CN2CCCCC2)(c2ccccc2)CC1)c1ccccc1C` [Compound 46, 1-(4-phenyl-4-(piperidin-1-ylmethyl)piperidin-1-yl)-3,3-di-o-tolylpropan-1-one], the pIC50 by setting is: under setting [1], 6.49; under setting [2], 6.60.

For the molecule `COc1ccccc1C(CC(=O)N1CCC(C(c2ccccc2)N2CC(C)NC(C)C2)CC1)c1ccccc1OC` (stereo not drawn) [Compound 83, 1-(4-((3,5-dimethylpiperazin-1-yl)(phenyl)methyl)piperidin-1-yl)-3,3-bis(2-methoxyphenyl)propan-1-one], the pIC50 under setting [1] is 5.52 and the pIC50 under setting [2] is 5.80.

Consider `CN1CCN(CC2CCN(C(=O)CC(c3ccccc3)c3ccccc3)CC2)CC1` [Compound 10, 1-(4-((4-methylpiperazin-1-yl)methyl)piperidin-1-yl)-3,3-diphenylpropanon-1-one], for which the pIC50 runs as follows: under setting [1], 5.60; under setting [2], 5.76.

Consider `CC(C)(C)N1CCN(CC2CCN(C(=O)CC(c3ccccc3)c3ccccc3)CC2)CC1` [Compound 66, 1-(4-((4-tert-butylpiperazin-1-yl)methyl)piperidin-1-yl)-3,3-diphenylpropan-1-one], for which the pIC50 reads like this: under setting [1], 5.66; under setting [2], 5.91.

As for `Cc1ccccc1C(CC(=O)N1CCC(CN2CCCCC2)CC1)c1ccccc1C` [Compound 42, 1-(4-(piperidin-1-ylmethyl)piperidin-1-yl)-3,3-di-o-tolylpropan-1-one], the pIC50 under setting [1] was 5.18 and the pIC50 under setting [2] was 5.61.

For `Cc1ccccc1C(CC(=O)N1CCC(C(=O)N2CCN(C(C)(C)C)CC2)CC1)c1ccccc1C` [Compound 79, 1-(4-(4-tert-butylpiperazine-1-carbonyl)piperidin-1-yl)-3,3-di-o-tolylpropan-1-one], the pIC50 was 5.83 under setting [1] and 6.03 under setting [2].

Turning to `Cc1ccccc1C(CC(=O)N1CCC(CN2CCN(C)CC2)CC1)c1ccccc1C` [Compound 14, 1-(4-((4-methylpiperazin-1-yl)methyl)piperidin-1-yl)-3,3-di-o-tolylpropan-1-one], the pIC50 is 5.72 under setting [1] and 5.97 under setting [2].

`O=C(NC(c1ccccc1)c1ccccc1)N1CCC(CN2CCCCC2)CC1` [Compound 41, N-benzhydryl-4-(piperidin-1-ylmethyl)piperidine-1-carboxamide]: the pIC50 under setting [1] is 5.28 and the negative-log IC50 (pIC50) under setting [2] was 5.46.

Turning to `CC1CN(CC2(c3ccccc3)CCN(C(=O)CC(c3ccccc3)c3ccccc3)CC2)CC(C)N1` (stereo not drawn) [Compound 30, 1-(4-((3,5-dimethylpiperazin-1-yl)methyl)-4-phenylpiperidin-1-yl)-3,3-diphenylpropan-1-one], the pIC50 runs as follows: under setting [1], 6.31; under setting [2], 6.49.

With `CC1CN(C(=O)C2CCN(C(=O)NC(c3ccccc3)c3ccccc3)CC2)CC(C)N1` (stereo not drawn) [Compound 25, N-benzhydryl-4-(3,5-dimethylpiperazine-1-carbonyl)piperidine-1-carboxamide], the negative logarithm of the IC50 (pIC50) under setting [1] is less than 5.19 and the pIC50 under setting [2] was 5.01.

As to `CC1CN(C(=O)C2CCN(C(=O)CNC(c3ccccc3)c3ccccc3)CC2)CC(C)N1` (stereo not drawn) [Compound 20, 2-(benzhydrylamino)-1-(4-(3,5-dimethylpiperazine-1-carbonyl)piperidin-1-yl)ethanone], the pIC50 is, setting by setting: under setting [1], 5.06; under setting [2], 5.52.

`CN1CCN(C(=O)C2CCN(C(=O)CNC(c3ccccc3)c3ccccc3)CC2)CC1` [Compound 7, 2-(benzhydrylamino)-1-(4-(4-methylpiperazine-1-carbonyl)piperidin-1-yl)ethanone]: the pIC50 under setting [1] was 5.32 and the pIC50 under setting [2] was 5.62.

With `CC1CN(C(=O)C2CCN(C(=O)CC(c3ccccc3)c3ccccc3)CC2)CC(C)N1` (stereo not drawn) [Compound 24, 1-(4-(3,5-dimethylpiperazine-1-carbonyl)piperidin-1-yl)-3,3-diphenylpropan-1-one], the pIC50 by setting is: under setting [1], less than 5.26; under setting [2], less than 5.45.

As for `CC(C)(C)N1CCN(C(=O)C2CCN(C(=O)COC(c3ccc(F)cc3)c3ccc(F)cc3)CC2)CC1` [Compound 82, 2-(bis(4-fluorophenyl)methoxy)-1-(4-(4-tert-butylpiperazine-1-carbonyl)piperidin-1-yl)ethanone], the pIC50 was 5.59 under setting [1] and 4.81 under setting [2].

Regarding `CN1CCN(C(=O)C2CCN(C(=O)NC(c3ccccc3)c3ccccc3)CC2)CC1` [Compound 13, N-benzhydryl-4-(4-methylpiperazine-1-carbonyl)piperidine-1-carboxamide], the pIC50 reads like this: under setting [1], 5.35; under setting [2], 5.66.

In the case of `CN1CCN(C(=O)C2CCN(C(=O)COC(c3ccccc3)c3ccccc3)CC2)CC1` [Compound 8, 2-(benzhydryloxy)-1-(4-(4-methylpiperazine-1-carbonyl)piperidin-1-yl)ethanone], the pIC50 under setting [1] was 5.29 and the pIC50 under setting [2] was 5.76.

As to `CC1CN(CC2CCN(C(=O)COC(c3ccccc3)c3ccccc3)CC2)CC(C)N1` (stereo not drawn) [Compound 18, 2-(benzhydryloxy)-1-(4-((3,5-dimethylpiperazin-1-yl)methyl)piperidin-1-yl)ethanone], the pIC50 under setting [1] was 5.73 and the pIC50 under setting [2] is 5.93.

Turning to `CC1CN(CC2CCN(C(=O)C[S+]([O-])C(c3ccccc3)c3ccccc3)CC2)CC(C)N1` (stereo not drawn) [Compound 19, 2-(benzhydrylsulfinyl)-1-(4-((3,5-dimethylpiperazin-1-yl)methyl)piperidin-1-yl)ethanone], the pIC50 reads like this: under setting [1], 5.43; under setting [2], 5.62.

Consider `O=C(CNC(c1ccccc1)c1ccccc1)N1CCC(CN2CCCCC2)CC1` [Compound 43, 2-(benzhydrylamino)-1-(4-(piperidin-1-ylmethyl)piperidin-1-yl)ethanone], for which the pIC50 by setting is: under setting [1], 5.27; under setting [2], 5.28.
